{
  "source": "patent EP4512398A1",
  "about": "“FLURALANER FOR USE IN METHODS OF TREATMENT AND PREVENTION OF SEA LICE INFESTATION IN FISH” (Bimeda Animal Health Limited, priority 2023, dated 2025)",
  "key": {"L. salmonis": {"system": "L. salmonis", "experiment": "proof-of-concept efficacy experiment: fluralaner in feed to sea-lice-infected farmed Atlantic salmon, lice counts", "format": "in vivo", "details": "for Average lice per fish / Total lice: 15 salmon sampled", "experimental": "(§1) A proof-of-concept experiment was carried out to determine the efficacy of fluralaner as a treatment for L. salmonis in farmed Atlantic salmon. Salmon infected with sea lice were divided evenly into three tanks, 41 fish per tank. Tank A acted as a control and no fluralaner was administered to the salmon, Tank B was given a low dog dose (25 mg/ kg of body weight) treatment and Tank C was given a high dog dose treatment (56 mg/ kg body weight). (See bravecto-epar-product-information attached for dosing rates). The powdered form of the drug was administered by mixing with standard aquaculture salmonid feed using fish oil as a binder. The experiment lasted for one week, between the 4/08/23 and the 11/08/23."}, "Atlantic salmon": {"system": "Atlantic salmon", "experiment": "mortality, adverse effects and behaviour of treated salmon in the proof-of-concept trial", "format": "in vivo", "experimental": "as §1\nSamples have been retained for histology and residue testing."}, "[1]": {"details": "Tank B, 25 mg/ kg of body weight oral in feed, 04/08/2023 (start of experiment, baseline)"}, "[2]": {"details": "Tank C, 56 mg/ kg body weight oral in feed, 04/08/2023 (start of experiment, baseline)"}},
  "data": [
    {"smiles": "Cc1cc(C2=NOC(c3cc(Cl)cc(Cl)c3)(C(F)(F)F)C2)ccc1C(=O)NCC(=O)NCC(F)(F)F", "note": "(stereo not shown) [fluralaner, Fluralaner]", "values": [
      {"measurement": "Average lice per fish", "setting": "L. salmonis; [1]", "value": 25.8},
      {"measurement": "Total lice", "setting": "L. salmonis; [1]", "value": 387},
      {"measurement": "Average lice per fish", "setting": "L. salmonis; Tank B, 25 mg/ kg of body weight oral in feed, 11/08/2023 (after one week), control Tank A 21.9", "value": 0.1},
      {"measurement": "Total lice", "setting": "L. salmonis; Tank B, 25 mg/ kg of body weight oral in feed, 11/08/2023 (after one week), control Tank A 329", "value": 1},
      {"measurement": "Average lice per fish", "setting": "L. salmonis; [2]", "value": 23.3},
      {"measurement": "Total lice", "setting": "L. salmonis; [2]", "value": 350},
      {"measurement": "Average lice per fish", "setting": "L. salmonis; Tank C, 56 mg/ kg body weight oral in feed, 11/08/2023 (after one week), control Tank A 21.9", "value": 0},
      {"measurement": "Total lice", "setting": "L. salmonis; Tank C, 56 mg/ kg body weight oral in feed, 11/08/2023 (after one week), control Tank A 329", "value": 0},
      {"measurement": "total lice numbers on the salmon that received the treatment", "setting": "L. salmonis; after one week, control tank remained high", "value": "significantly reduced"},
      {"measurement": "efficacy in treating L. salmonis in Atlantic salmon", "setting": "L. salmonis; preliminary study, oral in feed, 25 and 56 mg/kg", "value": "highly effective"},
      {"measurement": "mortalities", "setting": "Atlantic salmon; during the trial period or since its discontinuation", "value": "no mortalities"},
      {"measurement": "adverse effects on the salmon", "setting": "Atlantic salmon; trial period", "value": "no obvious adverse effects"},
      {"measurement": "behaviour of the salmon", "setting": "Atlantic salmon; trial period", "value": "normal"}
    ]}
  ]
}
